Target: T1, human PAH with the R408W mutation (Homo sapiens, UniProt P00439, R408W)
T1 construct: expressed in transfected cells
T1 sequence (P00439 1-452 R408W): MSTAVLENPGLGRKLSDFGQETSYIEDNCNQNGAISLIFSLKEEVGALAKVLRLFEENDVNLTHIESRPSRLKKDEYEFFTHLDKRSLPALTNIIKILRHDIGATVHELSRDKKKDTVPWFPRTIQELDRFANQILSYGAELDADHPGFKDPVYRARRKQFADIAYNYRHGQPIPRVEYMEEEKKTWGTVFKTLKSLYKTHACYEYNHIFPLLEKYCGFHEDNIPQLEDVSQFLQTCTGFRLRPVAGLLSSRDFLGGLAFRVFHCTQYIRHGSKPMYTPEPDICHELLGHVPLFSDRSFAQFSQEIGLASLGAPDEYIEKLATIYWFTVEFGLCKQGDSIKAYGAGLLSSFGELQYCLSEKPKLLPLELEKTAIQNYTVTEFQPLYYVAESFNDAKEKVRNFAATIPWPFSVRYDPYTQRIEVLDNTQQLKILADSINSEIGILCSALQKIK
Assay: Cell Based Phenylalanine Flux Assay
Conditions: A375 cells expressing human R408W PAH; 24 hrs compound incubation; 13C-Tyrosine by LC-MS; average where tested multiple times; read-out: AC50

| SMILES | AC50 [nM] |
| --- | --- |
| O=C(c1conc1C(F)(F)F)N1CCc2[nH]cnc2[C@@H]1c1nc2c(F)cccc2s1 [Example 1636, (R)-(4-(4-fluorobenzo[d]thiazol-2-yl)-6,7-dihydro-1H-imidazo[4,5-c]pyridin-5(4H)-yl)(3-(trifluoromethyl)isoxazol-4-yl)methanone] | 500 to 1000 |
| O=C(c1oc(C2(O)CCC2)nc1C(F)(F)F)N1CCc2[nH]cnc2[C@H]1c1nc2c(F)cccc2s1 [Example 1637, (S)-(4-(4-fluorobenzo[d]thiazol-2-yl)-6,7-dihydro-1H-imidazo[4,5-c]pyridin-5(4H)-yl)(2-(1-hydroxycyclobutyl)-4-(trifluoromethyl)oxazol-5-yl)methanone] | < 500 |
| O=C(c1oc(C2(O)CCC2)nc1C(F)(F)F)N1CCc2[nH]cnc2[C@@H]1c1nc2c(F)cccc2s1 [Example 1638, (R)-(4-(4-fluorobenzo[d]thiazol-2-yl)-6,7-dihydro-1H-imidazo[4,5-c]pyridin-5(4H)-yl)(2-(1-hydroxycyclobutyl)-4-(trifluoromethyl)oxazol-5-yl)methanone] | < 500 |
| O=C(c1scnc1Cl)N1CCc2[nH]cnc2[C@@H]1c1nc2c(F)cccc2s1 [Example 1639, (R)-(4-chlorothiazol-5-yl)(4-(4-fluorobenzo[d]thiazol-2-yl)-6,7-dihydro-1H-imidazo[4,5-c]pyridin-5(4H)-yl)methanone] | 1000 to 5000 |
| O=C(c1scnc1Cl)N1CCc2[nH]cnc2[C@H]1c1nc2c(F)cccc2s1 [Example 1640] | 500 to 1000 |
| CN(C)CCn1cc(C(=O)N2CCc3[nH]cnc3[C@H]2c2nc3c(F)cccc3s2)c(C(F)(F)F)n1 [Example 1641] | < 500 |
| CN(C)CCn1cc(C(=O)N2CCc3[nH]cnc3[C@@H]2c2nc3c(F)cccc3s2)c(C(F)(F)F)n1 [Example 1642, (R)-(1-(2-(dimethylamino)ethyl)-3-(trifluoromethyl)-1H-pyrazol-4-yl)(4-(4-fluorobenzo[d]thiazol-2-yl)-6,7-dihydro-1H-imidazo[4,5-c]pyridin-5(4H)-yl)methanone] | 500 to 1000 |
| Cn1cc(C(=O)N2CCc3[nH]cnc3[C@@H]2c2nc3c(F)cccc3s2)c(Cl)n1 [Example 1643, (R)-(3-chloro-1-methyl-1H-pyrazol-4-yl)(4-(4-fluorobenzo[d]thiazol-2-yl)-6,7-dihydro-1H-imidazo[4,5-c]pyridin-5(4H)-yl)methanone] | 1000 to 5000 |
| Cn1cc(C(=O)N2CCc3[nH]cnc3[C@H]2c2nc3c(F)cccc3s2)c(Cl)n1 [Example 1644] | < 500 |
| O=C([C@@H]1CC1(F)F)N1CCc2[nH]cnc2[C@H]1c1nc2c(F)cccc2s1 [Example 1645] | 500 to 1000 |
| O=C([C@@H]1CC1(F)F)N1CCc2[nH]cnc2[C@@H]1c1nc2c(F)cccc2s1 [Example 1646, ((S)-2,2-difluorocyclopropyl)((R)-4-(4-fluorobenzo[d]thiazol-2-yl)-6,7-dihydro-1H-imidazo[4,5-c]pyridin-5(4H)-yl)methanone] | 1000 to 5000 |
| O=C(CC1(O)CCC1)N1CCc2[nH]cnc2[C@H]1c1nc2c(F)cccc2s1 [Example 1647, (S)-1-(4-(4-fluorobenzo[d]thiazol-2-yl)-6,7-dihydro-1H-imidazo[4,5-c]pyridin-5(4H)-yl)-2-(1-hydroxycyclobutyl)ethanone] | 500 to 1000 |
| O=C(CC1(O)CCC1)N1CCc2[nH]cnc2[C@@H]1c1nc2c(F)cccc2s1 [Example 1648, (R)-1-(4-(4-fluorobenzo[d]thiazol-2-yl)-6,7-dihydro-1H-imidazo[4,5-c]pyridin-5(4H)-yl)-2-(1-hydroxycyclobutyl)ethanone] | 1000 to 5000 |
| O=C(CC1CC(F)C1)N1CCc2[nH]cnc2[C@H]1c1nc2c(F)cccc2s1 (stereo partly drawn) [Example 1649, (S)-1-(4-(4-fluorobenzo[d]thiazol-2-yl)-6,7-dihydro-1H-imidazo[4,5-c]pyridin-5(4H)-yl)-2-(3-fluorocyclobutyl)ethanone] | < 500 |
| O=C(CC1CC(F)C1)N1CCc2[nH]cnc2[C@@H]1c1nc2c(F)cccc2s1 (stereo partly drawn) [Example 1650, (R)-1-(4-(4-fluorobenzo[d]thiazol-2-yl)-6,7-dihydro-1H-imidazo[4,5-c]pyridin-5(4H)-yl)-2-(3-fluorocyclobutyl)ethanone] | 1000 to 5000 |
| N#Cc1nc(N2CCC(F)CC2)oc1C(=O)N1CCc2[nH]cnc2[C@H]1c1nc2ccccc2s1 [Example 1651, (S)-5-(4-(benzo[d]thiazol-2-yl)-4,5,6,7-tetrahydro-1H-imidazo[4,5-c]pyridine-5-carbonyl)-2-(4-fluoropiperidin-1-yl)oxazole-4-carbonitrile] | 500 to 1000 |
| N#Cc1nc(N2CCC(F)CC2)oc1C(=O)N1CCc2[nH]cnc2[C@@H]1c1nc2ccccc2s1 [Example 1652, (R)-5-(4-(benzo[d]thiazol-2-yl)-4,5,6,7-tetrahydro-1H-imidazo[4,5-c]pyridine-5-carbonyl)-2-(4-fluoropiperidin-1-yl)oxazole-4-carbonitrile] | > 5000 |
| O=C(c1cnc(-c2ccccn2)o1)N1CC2(CC2)c2[nH]cnc2[C@H]1c1nc2ccccc2s1 [Example 1653, (S)-(4′-(benzo[d]thiazol-2-yl)spiro[cyclopropane-1,7′-imidazo[4,5-c]pyridin]-5′(1′H,4′H,6′H)-yl)(2-(pyridin-2-yl)oxazol-5-yl)methanone] | 500 to 1000 |
| O=C(c1cnc(-c2ccccn2)o1)N1CC2(CC2)c2[nH]cnc2[C@@H]1c1nc2ccccc2s1 [Example 1654, (R)-(4′-(benzo[d]thiazol-2-yl)spiro[cyclopropane-1,7′-imidazo[4,5-c]pyridin]-5′(1′H,4′H,6′H)-yl)(2-(pyridin-2-yl)oxazol-5-yl)methanone] | 1000 to 5000 |
| O=C(N1CCc2[nH]cnc2[C@H]1c1nc2c(F)cccc2s1)C(F)(F)C1(O)CCC1 [Example 1655, (S)-2,2-difluoro-1-(4-(4-fluorobenzo[d]thiazol-2-yl)-6,7-dihydro-1H-imidazo[4,5-c]pyridin-5(4H)-yl)-2-(1-hydroxycyclobutyl)ethanone] | 500 to 1000 |
| O=C(N1CCc2[nH]cnc2[C@@H]1c1nc2c(F)cccc2s1)C(F)(F)C1(O)CCC1 [Example 1656, (R)-2,2-difluoro-1-(4-(4-fluorobenzo[d]thiazol-2-yl)-6,7-dihydro-1H-imidazo[4,5-c]pyridin-5(4H)-yl)-2-(1-hydroxycyclobutyl)ethanone] | 1000 to 5000 |
| O=C(CC1(O)CCC1)N1CCc2[nH]cnc2[C@H]1c1nc2ccccc2s1 [Example 1657] | < 500 |

The remaining lines, values ahead:

| AC50 [nM] | SMILES |
| --- | --- |
| 500 to 1000 | O=C(CC1(O)CCC1)N1CCc2[nH]cnc2[C@@H]1c1nc2ccccc2s1 [Example 1658, (R)-1-(4-(benzo[d]thiazol-2-yl)-6,7-dihydro-1H-imidazo[4,5-c]pyridin-5(4H)-yl)-2-(1-hydroxycyclobutyl)ethanone] |
| 1000 to 5000 | Cc1nc(CCN(C)C)oc1C(=O)N1CCc2[nH]cnc2[C@H]1c1nc2ccccc2s1 [Example 1659] |
| > 5000 | Cc1nc(CCN(C)C)oc1C(=O)N1CCc2[nH]cnc2[C@@H]1c1nc2ccccc2s1 [Example 1660, (R)-(4-(benzo[d]thiazol-2-yl)-6,7-dihydro-1H-imidazo[4,5-c]pyridin-5(4H)-yl)(2-(2-(dimethylamino)ethyl)-4-methyloxazol-5-yl)methanone] |
| 500 to 1000 | N#Cc1ncoc1C(=O)N1CCc2[nH]cnc2[C@H]1c1nc2c(F)cccc2s1 [Example 1661, (S)-5-(4-(4-fluorobenzo[d]thiazol-2-yl)-4,5,6,7-tetrahydro-1H-imidazo[4,5-c]pyridine-5-carbonyl)oxazole-4-carbonitrile] |
| 1000 to 5000 | N#Cc1ncoc1C(=O)N1CCc2[nH]cnc2[C@@H]1c1nc2c(F)cccc2s1 [Example 1662, (R)-5-(4-(4-fluorobenzo[d]thiazol-2-yl)-4,5,6,7-tetrahydro-1H-imidazo[4,5-c]pyridine-5-carbonyl)oxazole-4-carbonitrile] |
| > 5000 | N#Cc1ncoc1C(=O)N1CC2(CC2)c2[nH]cnc2[C@@H]1c1nc2ccccc2s1 [Example 1663, (R)-5-(4′-(benzo[d]thiazol-2-yl)-1′,4′,5′,6′-tetrahydrospiro[cyclopropane-1,7′-imidazo[4,5-c]pyridin]-5′-ylcarbonyl)oxazole-4-carbonitrile] |
| 1000 to 5000 | N#Cc1ncoc1C(=O)N1CC2(CC2)c2[nH]cnc2[C@H]1c1nc2ccccc2s1 [Example 1664, (S)-5-(4′-(benzo[d]thiazol-2-yl)-1′,4′,5′,6′-tetrahydrospiro[cyclopropane-1,7′-imidazo[4,5-c]pyridin]-5′-ylcarbonyl)oxazole-4-carbonitrile] |
| < 500 | O=C(c1oc(CCN2CC(F)C2)nc1C(F)(F)F)N1CCc2[nH]cnc2[C@H]1c1nc2c(F)cccc2s1 [Example 1665] |
| < 500 | O=C(c1oc(CCN2CC(F)C2)nc1C(F)(F)F)N1CCc2[nH]cnc2[C@@H]1c1nc2c(F)cccc2s1 [Example 1666, (R)-(2-(2-(3-fluoroazetidin-1-yl)ethyl)-4-(trifluoromethyl)oxazol-5-yl)(4-(4-fluorobenzo[d]thiazol-2-yl)-6,7-dihydro-1H-imidazo[4,5-c]pyridin-5(4H)-yl)methanone] |
| 1000 to 5000 | O=C(c1ocnc1C(F)(F)F)N1CC2(CC2)c2[nH]cnc2[C@@H]1c1nc2ccccc2s1 [Example 1667, (R)-(4′-(benzo[d]thiazol-2-yl)spiro[cyclopropane-1,7′-imidazo[4,5-c]pyridin]-5′(1′H,4′H,6′H)-yl)(4-(trifluoromethyl)oxazol-5-yl)methanone] |
